{
  "source": "ChEMBL document CHEMBL1155704",
  "about": "“Acetylated analogues of the microtubule-stabilizing agent discodermolide: preparation and biological activity” (J Nat Prod, 2001)",
  "tested_on": "P388",
  "assay": "Cytotoxicity against mouse P388 cells after 48 hrs by MTT assay",
  "assay_type": "functional, cell-based",
  "settings": "P388, 48 h",
  "data": [
    {"compound": "C=C/C=C\\[C@H](C)[C@H](OC(N)=O)[C@@H](C)[C@H](OC(C)=O)[C@@H](C)C/C(C)=C\\[C@H](C)[C@@H](O)[C@@H](C)/C=C\\[C@H](C[C@@H]1OC(=O)[C@H](C)[C@@H](OC(C)=O)[C@H]1C)OC(C)=O", "values": [
      {"measurement": "IC50", "result": "> 6920", "unit": "nM"}
    ]},
    {"compound": "C=C/C=C\\[C@H](C)[C@H](OC(N)=O)[C@@H](C)[C@H](O)[C@@H](C)C/C(C)=C\\[C@H](C)[C@@H](O)[C@@H](C)/C=C\\[C@@H](O)C[C@@H]1OC(=O)[C@H](C)[C@@H](OC(C)=O)[C@H]1C", "values": [
      {"measurement": "IC50", "result": 12.6, "unit": "nM"}
    ]},
    {"compound": "C=C/C=C\\[C@H](C)[C@H](OC(N)=O)[C@@H](C)[C@H](O)[C@@H](C)C/C(C)=C\\[C@H](C)[C@@H](O)[C@@H](C)/C=C\\[C@H](C[C@@H]1OC(=O)[C@H](C)[C@@H](O)[C@H]1C)OC(C)=O", "values": [
      {"measurement": "IC50", "result": 3.9, "unit": "nM"}
    ]},
    {"compound": "C=C/C=C\\[C@H](C)[C@H](OC(N)=O)[C@@H](C)[C@H](O)[C@@H](C)C/C(C)=C\\[C@H](C)[C@@H](OC(C)=O)[C@@H](C)/C=C\\[C@@H](O)C[C@@H]1OC(=O)[C@H](C)[C@@H](OC(C)=O)[C@H]1C", "values": [
      {"measurement": "IC50", "result": 103, "unit": "nM"}
    ]},
    {"compound": "C=C/C=C\\[C@H](C)[C@H](OC(N)=O)[C@@H](C)[C@H](O)[C@@H](C)C/C(C)=C\\[C@H](C)[C@@H](O)[C@@H](C)/C=C\\[C@H](C[C@@H]1OC(=O)[C@H](C)[C@@H](OC(C)=O)[C@H]1C)OC(C)=O", "values": [
      {"measurement": "IC50", "result": 0.74, "unit": "nM"}
    ]},
    {"compound": "C=C/C=C\\[C@H](C)[C@H](OC(N)=O)[C@@H](C)[C@H](O)[C@@H](C)C/C(C)=C\\[C@H](C)[C@@H](OC(C)=O)[C@@H](C)/C=C\\[C@H](C[C@@H]1OC(=O)[C@H](C)[C@@H](OC(C)=O)[C@H]1C)OC(C)=O", "values": [
      {"measurement": "IC50", "result": 166, "unit": "nM"}
    ]},
    {"compound": "C=C/C=C\\[C@H](C)[C@H](OC(N)=O)[C@@H](C)[C@H](OC(C)=O)[C@@H](C)C/C(C)=C\\[C@H](C)[C@@H](OC(C)=O)[C@@H](C)/C=C\\[C@H](C[C@@H]1OC(=O)[C@H](C)[C@@H](OC(C)=O)[C@H]1C)OC(C)=O", "values": [
      {"measurement": "IC50", "result": 837, "unit": "nM"}
    ]},
    {"compound": "C=C/C=C\\[C@H](C)[C@H](OC(N)=O)[C@@H](C)[C@H](OC(C)=O)[C@@H](C)C/C(C)=C\\[C@H](C)[C@@H](O)[C@@H](C)/C=C\\[C@@H](O)C[C@@H]1OC(=O)[C@H](C)[C@@H](OC(C)=O)[C@H]1C", "values": [
      {"measurement": "IC50", "result": 1150, "unit": "nM"}
    ]}
  ]
}
